Columns and labels:
Settings in all cases: 72 h
Caco-2 [1] = test: drug sensitivity score (DSS) for viability; higher = more toxic; extreme values may be limits of the assay
Calu-3 [2] = test: as above
Vero E6 [3] = test: as above
HepG2 [4] = test: as above
U2OS [5] = test: as above
Caco-2 [6] = test: cell viability relative to DMSO; higher = less toxic
Calu-3 [7] = test: as above
Vero E6 [8] = test: as above
HepG2 [9] = test: as above
U2OS [10] = test: as above
Caco-2 [11] = test: relative viability EC50 (midpoint between 100% and the lowest measured viability); higher = less toxic
Calu-3 [12] = test: as above
Vero E6 [13] = test: as above
HepG2 [14] = test: as above
U2OS [15] = test: as above

Structure (SMILES)	drug sensitivity score (Caco-2 [1])	drug sensitivity score (Calu-3 [2])	drug sensitivity score (Vero E6 [3])	drug sensitivity score (HepG2 [4])	drug sensitivity score (U2OS [5])	cell viability (Caco-2 [6]; 1 nM)	cell viability (Caco-2 [6]; 10 nM)	cell viability (Caco-2 [6]; 100 nM)	cell viability (Caco-2 [6]; 1000 nM)	cell viability (Caco-2 [6]; 10000 nM)	cell viability (Calu-3 [7]; 1 nM)	cell viability (Calu-3 [7]; 10 nM)	cell viability (Calu-3 [7]; 100 nM)	cell viability (Calu-3 [7]; 1000 nM)	cell viability (Calu-3 [7]; 10000 nM)	cell viability (Vero E6 [8]; 1 nM)	cell viability (Vero E6 [8]; 10 nM)	cell viability (Vero E6 [8]; 100 nM)	cell viability (Vero E6 [8]; 1000 nM)	cell viability (Vero E6 [8]; 10000 nM)	cell viability (HepG2 [9]; 1 nM)	cell viability (HepG2 [9]; 10 nM)	cell viability (HepG2 [9]; 100 nM)	cell viability (HepG2 [9]; 1000 nM)	cell viability (HepG2 [9]; 10000 nM)	cell viability (U2OS [10]; 1 nM)	cell viability (U2OS [10]; 10 nM)	cell viability (U2OS [10]; 100 nM)	cell viability (U2OS [10]; 1000 nM)	cell viability (U2OS [10]; 10000 nM)	relative viability EC50 (Caco-2 [11])	relative viability EC50 (Calu-3 [12])	relative viability EC50 (Vero E6 [13])	relative viability EC50 (HepG2 [14])	relative viability EC50 (U2OS [15])
CC(=O)Nc1ncc([N+](=O)[O-])s1 [nithiamide]	0	0	0	0	0	96.7%	97.8%	103%	105%	94.1%	97.5%	98.2%	102%	110%	101%	101%	99.5%	100%	93.4%	98%	108%	91.7%	95.4%	92.1%	96.3%	99.2%	104%	97.8%	103%	102%	> 10 µM	> 10 µM	> 10 µM	> 10 µM	> 10 µM
C[S+](C)CC[C@H](N)C(=O)O [cabagin]	0	0	0	0	0	90.6%	97.6%	109%	97.3%	99.6%	103%	84.8%	85.1%	86.3%	103%	92.1%	99.5%	85.3%	101%	108%	95.6%	99.5%	103%	102%	98.5%	97.9%	92.3%	101%	94.7%	100%	> 10 µM	> 10 µM	> 10 µM	> 10 µM	> 10 µM
NC(=O)CNCCC(c1ccccc1)c1ccccc1 [N20C]	0	0	0	0	0	107%	98.4%	89.4%	97.2%	103%	109%	97.5%	96.6%	99.4%	106%	96.9%	106%	98.2%	98.1%	97.6%	97.3%	93.6%	106%	111%	94.9%	106%	99.4%	100%	99.2%	102%	> 10 µM	> 10 µM	> 10 µM	> 10 µM	> 10 µM
C[N+](C)(C)CCCCCNCC12CC3CC(CC(C3)C1)C2 [IEM1460]	0.1	0	0	0	0	96.2%	103%	95%	99.6%	88.1%	91.1%	104%	96.1%	98.2%	98.4%	105%	91%	105%	92.5%	103%	101%	85.2%	104%	93.9%	106%	94.1%	102%	99%	103%	95.7%	> 10 µM	> 10 µM	> 10 µM	> 10 µM	> 10 µM
N[C@@H](Cc1ccc(Cl)cc1)C(=O)O (racemic) [fenclonine-(+/-)]	0	0	0	0	0	94%	102%	97.9%	97.5%	93.2%	98.1%	101%	97.7%	96.4%	97.1%	110%	106%	105%	98.6%	102%	103%	107%	101%	93.7%	100%	93.6%	101%	96.4%	102%	97.2%	> 10 µM	> 10 µM	> 10 µM	> 10 µM	> 10 µM
CC1(C)Oc2ccc(C#N)cc2[C@H](N(Cc2ncc[nH]2)c2ccc(Cl)cc2)[C@H]1O	0	0	0	0	0	106%	101%	98%	103%	89.4%	103%	104%	105%	102%	99.2%	93.8%	93%	95.2%	97.2%	102%	107%	109%	98%	103%	114%	101%	103%	103%	103%	96.8%	> 10 µM	> 10 µM	> 10 µM	> 10 µM	> 10 µM
CC(C)(O)C(Cl)(Cl)Cl [chlorobutanol]	0	0	0	0	0	95%	107%	98.7%	85.2%	98.1%	105%	107%	104%	110%	98.9%	102%	96.9%	100%	102%	102%	110%	96.8%	105%	96.1%	110%	99.7%	101%	96.5%	98.3%	96.5%	> 10 µM	> 10 µM	> 10 µM	> 10 µM	> 10 µM
